# Tested on: SARS-CoV-2 variant D614G
# Assay type: cell-based
substance,measurement,value
ACE2-Fc,inhibition of infection by SARS-CoV-2 variant D614G,inhibited infection
